Reference: US20220087983A1, “ACTIVATING PYRUVATE KINASE R” (FORMA Therapeutics, Inc., priority 2020, published 2022)

Experiments:
[1] = target: PKR(G332S) (Homo sapiens, UniProt P30613, G332S); assay: Luminescence Assay (Kinase Glo Plus) of PKR activation; format: biochemical; settings: G332S variant; Luminescence Assay of Example 2
Method: (§1) PKR Activating Compounds can be identified with the biochemical Luminescence Assay of Example 2. The PKR activating activity of a series of chemical compounds was evaluated using the Luminescence Assay below, including compounds designated Compound 1, and Compound 2, or mixtures thereof.
(§2) For each tested compound, the ability to activate PKR was determined using the following Luminescence Assay. The effect of phosphorylation of adenosine-5′-diphosphate (ADP) by PKR is determined by the Kinase Glo Plus Assay (Promega) in the presence or absence of FBP (D-fructose-1,6-diphosphate; BOC Sciences, CAS: 81028-91-3) as follows. Unless otherwise indicated, all reagents are purchased from Sigma-Aldrich. All reagents are prepared in buffer containing 50 mM Tris-HCl, 100 mM KCl, 5 mM MgCl2, and 0.01% Triton X100, 0.03% BSA, and 1 mM DTT. Enzyme and PEP (phosphoenolpyruvate) are added at 2× to all wells of an assay-ready plate containing serial dilutions of test compounds or DMSO vehicle. Final enzyme concentrations for PKR(wt), PKR(R510Q), and PKR(G332S) are 0.8 nM, 0.8 nM, and 10 nM respectively. Final PEP concentration is 100 μM. The Enzyme/PEP mixture is incubated with compounds for 30 minutes at RT before the assay is initiated with the addition of 2×ADP and KinaseGloPlus. Final concentration of ADP is 100 μM. […] For assays containing FBP, that reagent is added at 30 μM upon reaction initiation. Reactions are allowed to progress for 45 minutes at RT until luminescence is recorded by the BMG PHERAstar FS Multilabel Reader. The compound is tested in triplicate at concentrations ranging from 42.5 μM to 2.2 nM in 0.83% DMSO. AC50 measurements were obtained by the standard four parameter fit algorithm of ActivityBase XE Runner (max, min, slope and AC50). The AC50 value for a compound is the concentration (μM) at which the activity along the four parameter logistic curve fit is halfway between minimum and maximum activity.
(§3) As set forth in Table 2 below, AC50 values are defined as follows: ≤0.1 μM (+++); >0.1 μM and ≤1.0 μM (++); >1.0 μM and ≤40 μM (+); >40 μM (0).

[2] = target: PKR(R510Q) (Homo sapiens, UniProt P30613, R510Q); assay: as above; format: biochemical; settings: R510Q variant; Luminescence Assay of Example 2
Method: as §1, §2, §3

[3] = target: PKR(wt) (Homo sapiens, UniProt P30613); assay: as above; format: biochemical; settings: wild type; Luminescence Assay of Example 2
Method: as §1, §2, §3

[4] = tested on: ATP blood levels; assay: Phase 1: blood ATP levels in healthy volunteers (LC-MS/MS); format: in vivo, human; settings: for Mean maximum percent change from baseline in ATP: all doses and timepoints
Method: In this study, SAD/MAD cohorts are randomized (3 to 1) to receive Compound 1 or placebo (P). Compound 1 was evaluated first in 4 healthy SAD cohorts and 4 healthy MAD (14-day dosing period) cohorts. Based on the safety, and PK/PD profile from HS, Compound 1 is then evaluated in 1 SCD SAD cohort and 2 SCD MAD cohorts. Specifically, based on the safety and pharmacokinetic/pharmacodynamics (PK/PD) profile in healthy volunteer studies, Compound 1 is evaluated in patients (pts) with SCD, first in a single dose (SD or SAD) cohort and then in multiple-dose (MD or MAD) cohorts (14-day and 12-week). Safety assessments include AEs, vital signs, ECGs and laboratory parameters. PK/PD blood sampling was performed on Day 1 (SAD/MAD) and Day 14 (MAD) and up to 72 h after the last dose and at the end-of-study visit. PD parameters included 2,3-DPG, ATP, and p50 in all cohorts with additional PD studies (including oxygen scan) performed only in the SCD cohorts. PD parameters included 2,3-DPG, ATP, p50, RBC deformability with controlled deoxygenation and reoxygenation (Lorrca® oxygen scan) and varying osmolality (Lorrca® osmoscan)). To maintain study blind, pt identifiers were removed when needed.
In the MAD cohorts, the subjects' blood ATP levels were measured […] by a qualified LC-MS/MS method for the quantitation of ATP in blood. […] Table 20A reports the median percentage change in blood ATP levels, relative to baseline, measured over time after the first dose on days 1 and 14 in healthy volunteers who received daily doses of Compound 1 (100 mg BID, 200 mg BID, 300 mg BID, or 400 mg QD) or placebo for 14 days. Table 20B reports the mean percentage change in ATP blood levels, relative to baseline, measured over time after the first dose on days 1 and 14 in healthy volunteers who received daily doses of Compound 1 (100 mg BID, 200 mg BID, 300 mg BID, or 400 mg QD) for 14 days.
The following procedures are employed for the analysis of ATP and 2,3-DPG in human whole blood K2EDTA using a protein precipitation extraction procedure and analysis by LC-MS/MS. […]

[5] = target: T1, CYP2C19 (Homo sapiens, UniProt P33261); assay: Single substrate DDI assay, reversible CYP inhibition in human liver microsomes; format: in vitro ADME
T1 construct: from tissue; host or cells: human liver microsomes
T1 sequence (P33261 whole entry): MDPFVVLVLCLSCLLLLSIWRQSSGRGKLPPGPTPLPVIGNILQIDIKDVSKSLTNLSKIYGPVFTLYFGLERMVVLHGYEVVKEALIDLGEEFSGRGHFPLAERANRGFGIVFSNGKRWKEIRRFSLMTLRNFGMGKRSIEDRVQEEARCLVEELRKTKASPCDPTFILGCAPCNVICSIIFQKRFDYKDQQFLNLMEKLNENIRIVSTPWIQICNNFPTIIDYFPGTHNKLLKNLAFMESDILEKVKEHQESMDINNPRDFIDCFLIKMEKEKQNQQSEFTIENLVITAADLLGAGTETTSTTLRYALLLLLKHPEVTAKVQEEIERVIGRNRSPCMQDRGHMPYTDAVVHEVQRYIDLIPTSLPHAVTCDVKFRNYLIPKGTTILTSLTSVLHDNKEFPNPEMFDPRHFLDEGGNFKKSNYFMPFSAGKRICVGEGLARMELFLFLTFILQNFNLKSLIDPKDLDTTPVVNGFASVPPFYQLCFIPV

Chain of PKR(G332S) (P30613 whole entry G332S): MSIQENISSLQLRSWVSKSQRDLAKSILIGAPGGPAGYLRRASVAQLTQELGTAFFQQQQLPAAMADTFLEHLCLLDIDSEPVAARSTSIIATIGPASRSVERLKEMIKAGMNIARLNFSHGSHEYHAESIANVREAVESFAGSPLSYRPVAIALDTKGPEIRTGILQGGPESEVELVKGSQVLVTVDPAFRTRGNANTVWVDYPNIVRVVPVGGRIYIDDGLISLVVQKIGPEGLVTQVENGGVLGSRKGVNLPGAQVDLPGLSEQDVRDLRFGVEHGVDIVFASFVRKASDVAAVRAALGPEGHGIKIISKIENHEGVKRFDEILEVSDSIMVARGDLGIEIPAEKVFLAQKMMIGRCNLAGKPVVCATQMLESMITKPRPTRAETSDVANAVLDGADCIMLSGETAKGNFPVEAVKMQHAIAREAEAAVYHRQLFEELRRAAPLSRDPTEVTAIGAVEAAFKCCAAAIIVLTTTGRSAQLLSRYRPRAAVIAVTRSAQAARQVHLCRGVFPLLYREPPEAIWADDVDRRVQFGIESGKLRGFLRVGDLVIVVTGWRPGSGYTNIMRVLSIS
Chain of PKR(R510Q) (P30613 whole entry R510Q): as the sequence (P30613 whole entry G332S) above, with S332G, R510Q counted along it
Chain of PKR(wt) (P30613 whole entry): as the sequence (P30613 whole entry G332S) above, with S332G counted along it

For `O=C([C@H](CO)c1ccccc1)N1CC2=C(C1)CN(S(=O)(=O)c1cnc3c(c1)OCCO3)C2` (single isomer, unassigned) [Compound 1], which AC50 [1] is on record?
Its AC50 is under 1000 nM.

What about the AC50 [2] of the same compound?
Its AC50 is under 1000 nM.

And the AC50 [3]?
Its AC50 is under 1000 nM.

And the “Mean maximum percent change from baseline in ATP” value ([4]; HV MAD, N = 36)?
The value was 68.5%.

What about the “Mean maximum percent change from baseline in ATP” value ([4]; HV SAD, N = 24) of the same compound?
Its value is 24.4%.

What about the “lag of maximum ATP increase behind maximum plasma concentration” value ([4]; HV, single 200-1000 mg dose) of the same compound?
Its value is “at least 24 hours”.

What about the IC50 [5] of the same compound?
Its IC50 is over 30 µM.
